Measured values as given in article PMC11204543, “Halenaquinol Blocks Staphylococcal Protein A Anchoring on Cell Wall Surface by Inhibiting Sortase A in Staphylococcus aureus” (Marine Drugs, 2024).
pIC50, pKi: −log10 of the molar value. ≈ marks a conversion by molar mass, not a printed value. Where “and” joins values, the source holds several entries; their conditions need not be identical. Identical values can stand only once. Entries after “also recorded” stand apart in the source; their conditions may differ. Counter-ions that a name gives are not always drawn. Like-named read-outs stand apart in the source and are kept apart here.

Columns and labels:
S. aureus ATCC6538p = assay: Antibacterial activity (CLSI broth dilution MIC); type: cell-based; settings: Staphylococcus aureus, 12 h
Experimental: (§1) The SrtA inhibitory activity of compounds 1–6, along with that of a known SrtA inhibitor, quercetin [24], was evaluated in vitro using a fluorescence-based enzymatic assay. Recombinant SrtA from S. aureus ATCC6538p was expressed in Escherichia coli and was purified using nickel affinity chromatography. The cleavage of a synthetic peptide substrate by the SrtA enzyme emitted fluorescence, which was then measured. Table 1 presents the half maximal inhibitory concentration (IC50) values calculated from SrtA inhibition rates. […] As SrtA inhibitors act as anti-infective agents by disrupting bacterial pathogenesis without affecting microbial viability, minimum inhibitory concentration (MIC) values were examined to determine their effects on bacterial cell growth.
An assessment of the antibacterial properties of the isolated compounds was conducted in accordance with the protocols provided by the Clinical and Laboratory Standard Institute (CLSI). The S. aureus ATCC6538p strain was cultivated overnight at 37 °C in Mueller–Hinton broth (MHB, BD Difco, Sparks, MD, USA). Subsequently, it was harvested using centrifugation, rinsed with sterilized deionized water, and adjusted to the optical density of a 0.5 McFarland standard (625 nm). Test compounds, initially dissolved in DMSO, were further diluted with MHB to achieve a range of 2-fold serial dilutions from 0.25 to 128 μg/mL (maintaining a final DMSO concentration of 1%). In a 96-well plate, 90 μL of the MHB containing the test compound were combined with 10 μL of broth inoculated with the bacterium (final bacterial concentration: 5 × 10^5 cfu/mL). Following a 12 h incubation at 37 °C, the MICs were determined as the lowest concentration at which bacterial growth was inhibited. Ampicillin (Duchefa, Amsterdam, The Netherlands) served as the reference standard.

[1] = molecular target: T1, Recombinant SrtA from S. aureus ATCC6538p (Staphylococcus aureus, UniProt Q2FV99); assay: SrtA inhibition assay (fluorescence-based enzymatic assay, Abz-LPETG-Dnp substrate); type: biochemical; settings: for pIC50: SrtA IC50, recombinant SrtA from S. aureus ATCC6538p, mean ± SD (n = 3); for SrtA inhibitory activity in words: similar to that of quercetin
T1 construct: no tag is named in the print; made in house; host or cells: Escherichia coli
Experimental: as §1
To determine the type of inhibition, kinetic studies were performed with halenaquinol at IC50 or twofold IC50 based on a Lineweaver and Burk plot (Figure 2A). Inhibitor constants were obtained by a Dixon plot (Figure 2B). […] Moreover, the binding of halenaquinol to SrtA was reversible because the enzyme activity was recovered by dialysis, excluding the possible existence of a covalent bond between inhibitor and enzyme.
The recombinant SrtA protein from S. aureus ATCC6538p was prepared using a previously described method. Each reaction comprised a 100 μL mixture containing a reaction buffer (50 mM Tris-HCl pH 7.5, 150 mM NaCl, and 5 mM CaCl2), 250 ng of synthetic fluorescent peptide substrate (Abz-LPETG-Dnp), 20 μg of SrtA, and varying concentrations of test samples. DMSO served as the negative control, while quercetin [24] was employed as the positive control. Test sample was dissolved in DMSO and then diluted with reaction buffer to yield a final DMSO concentration of 1%. The reaction mixture was aliquoted into a 96-well plate. Following the addition of SrtA, fluorescence intensity was determined using a microplate reader at excitation and emission wavelengths of 320 nm and 420 nm, respectively. The plate was then incubated for 1 h at 37 °C, and fluorescence intensity was measured. The effect of the inhibitor on SrtA was calculated as a percentage relative to the DMSO-treated control. The percentage of SrtA inhibition was calculated using the following equation: {1 − (Difference value of the test compound/Difference value of a negative control)} × 100. A 12-point, twofold serial dilution dose–response assay was performed independently in triplicate. The resultant dose–response concentration range was 128 to 0.1 μg/mL of inhibitor. Data were scaled to internal controls, and a four-parameter logistic model (SigmaPlot ver. 10.0) was used to fit the measured data and determine the IC50 values. In order to investigate the inhibition type and inhibition constant (Ki) values of halenaquinol, SrtA enzyme activity was monitored in various concentrations of substrate in the absence and presence of halenaquinol. All reactions were repeated three times and enzyme kinetics were evaluated using Lineweaver–Burk and Dixon plots.

S. mutans SrtA = settings: cited from earlier work
S. aureus SrtA = settings: cited from earlier work
[2] = tested on: SpA anchoring on cell wall surface of S. aureus Newman; assay: SpA cell wall surface anchoring after trypsin removal, Western blot with anti-SpA antibody; type: cell-based, Staphylococcus aureus; settings: trypsin-treated wild type, 1 h
Experimental: The anchoring of SpA on the cell-wall surface in S. aureus was measured using Western blot analysis with monoclonal anti-SpA antibody (Figure 4). […] Then, trypsin-treated wild-type S. aureus cells were incubated in medium containing an SrtA inhibitor, halenaquinol, over a concentration range of 1-to-4 times the IC50 values.
The effect of the test compound on the in vivo inhibition of S. aureus SrtA was investigated by quantifying the abundance of SpA, catalyzed by the transpeptidation of SrtA on the bacterial surface [26]. […] For this study, S. aureus Newman (wild-type), a human clinical isolate, and its isogenic srtA-deletion mutant (ΔsrtA) were utilized [6, 37]. These strains were inoculated into 5 mL of TSB and incubated for 16 h at 37 °C with shaking. Cultures were then diluted 1:100 into TSB and were grown until the OD600 reached approximately 0.5. Cells from a 10 mL culture were harvested, rinsed with phosphate-buffered saline (PBS, Sigma–Aldrich), suspended in 5 mL of PBS containing 0.2 mg/mL trypsin (Sigma-Aldrich), incubated at 37 °C with shaking for 1 h, and washed with PBS. Subsequently, the cells were incubated in 5 mL of TSB containing 1 mM phenylmethylsulfonyl fluoride (PMSF), with the test compound at 37 °C with shaking for 1 h. Negative control groups were treated with DMSO solvent instead of the test compound. Then, aliquots (1 mL) were removed, and the cells were harvested and stored at −80 °C.
S. aureus cells, prepared as described above, were suspended in 1 mL of ice-cold PBS containing 1 mM PMSF. A 1% (w/v) solution of Sulfo-NHS-SS-Biotin was prepared, and it was added (100 μL) to 1 mL of cells, resulting in a final concentration of 1.5 mM Sulfo-NHS-SS-Biotin. The cells were then incubated with gentle shaking at 80 rpm for 2 h on ice and were collected using centrifugation (4000× g, 5 min, 4 °C). To halt the biotinylation reaction, cells were washed three times with 1 mL of ice-cold PBS containing 500 mM glycine. Next, the cells were suspended in 500 μL of lysis buffer containing 100 μg/mL lysostaphin (Sigma–Aldrich) and 2 mM PMSF. […]

[3] = tested on: srtA and spa mRNA expression in S. aureus Newman; assay: Semiquantitative reverse transcription PCR of srtA and spa mRNA; type: cell-based, Staphylococcus aureus
Source text: To ascertain whether halenaquinol inhibits the transcription of srtA or blocks its function at an enzyme level without affecting the expression of the srtA gene, the mRNA expression level of srtA in response to various concentrations and exposure times of halenaquinol was initially explored using semi-quantitative reverse transcription PCR (RT-PCR). Total RNA isolated from S. aureus Newman was transcribed into cDNA, and it was used as a template to amplify the target genes. A time-course analysis assessed the impact of halenaquinol on srtA expression at different intervals from 0 to 60 min. […] Furthermore, the expression level of srtA was analyzed after 40 min of incubation at various concentrations of halenaquinol.
Figure 3 Effect of SrtA inhibitors on srtA and spa mRNA expression. S. aureus Newman cells were incubated in the presence of halenaquinol and quercetin. mRNA expression levels of cells were examined using semiquantitative RT-PCR. (A) The time courses of mRNA expression of gyrB and srtA were monitored. Total RNA was isolated from cells grown in medium containing 0.2% dimethyl sulfoxide (DMSO, negative control), halenaquinol or quercetin (positive control). (B) Cells were grown in medium containing the indicated concentrations of halenaquinol or quercetin. The gyrB gene was used as a loading control.
The S. aureus Newman strain was inoculated into 5 mL of trypticase soy broth (TSB) and incubated overnight at 37 °C with shaking. Cultures were diluted 1:100 into TSB and grown until the OD600 reached approximately 0.3. Cultures (5 mL) were aliquoted, and the test compound was added with less than 0.2% DMSO. The negative control group was treated with DMSO only. Cultures were then incubated at 37 °C with shaking and harvested at specific incubation times. Then, 1 mL of each culture was centrifuged, and the pellet was stored at −80 °C. RNA was isolated using the easy-BLUE total RNA extraction kit (iNtRON Biotechnology, Boston, MA, USA). […]

[4] = tested on: SpA surface display on S. aureus Newman; assay: Immunofluorescence microscopy of SpA surface display; type: cell-based, Staphylococcus aureus; settings: 8 × IC50 (111.52 μM)
Experimental: Figure 5 Fluorescence microscopy images of SpA surface display. […] BF identifies the bright-field microscopy view of fluorescence microscopy images. Scale bar, […].
The surface display of SpA was visualized following established procedures. A solution of 0.01% poly-L-lysine (Sigma-Aldrich) was added to each well of an 8-well glass chamber slide (SPL) and incubated at 25 °C for 5 min to coat the slide. After washing each well with distilled water and ensuring complete drying, 1 mL of cells, prepared as described above for the re-expression of the cell surface protein, was suspended in PBS containing 0.05% Tween 80 (PBST) and was thoroughly vortexed. A total of 250 μL of suspension was removed and incubated at 25 °C for 20 min with 250 μL of PBS (2.4% paraformaldehyde, 0.006% glutaraldehyde, and 0.05% Tween 80). The fixed cells were washed twice with PBST, and 150 μL of cells were added to the coated slide and incubated at 25 °C for 5 min. […] After washing seven times, anti-fade fluorescence mounting medium (Abcam, Cambridge, UK) was added. […] Images were captured using AiryScan fluorescence detectors and a transmitted light detector (T-PMT) under 10× scan zoom, bidirectional scan, 4× averaging. All the images were analyzed in ZEN 2.1 software (Carl Zeiss).

T1 sequence (Q2FV99 whole entry): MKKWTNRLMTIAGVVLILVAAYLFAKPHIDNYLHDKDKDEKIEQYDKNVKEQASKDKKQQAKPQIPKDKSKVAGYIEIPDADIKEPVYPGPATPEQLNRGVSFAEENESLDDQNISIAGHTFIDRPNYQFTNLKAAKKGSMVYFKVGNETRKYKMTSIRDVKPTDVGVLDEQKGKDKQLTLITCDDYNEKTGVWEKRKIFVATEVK

For `C[C@@]12CCCc3coc(c31)C(=O)c1cc3c(O)ccc(OS(=O)(=O)O)c3cc12` [Compound 4, xestoquinol sulfate], the MIC (S. aureus ATCC6538p; ATCC6538P) was 320 µM and > 128 µg/mL and the pIC50 [1] was under 3.50.
In the case of `C[C@H]1OC(=O)c2cc3c(cc21)[C@@]1(C)CC[C@@H](O)c2coc(c21)C3=O` [Compound 6, xestolactone A], the MIC (S. aureus ATCC6538p; ATCC6538P) was 395 µM and > 128 µg/mL and the pIC50 [1] was 4.32.
In the case of `O=c1c(O)c(-c2cc(O)c(O)c(O)c2)oc2cc(O)cc(O)c12` [myricetin], the IC50 (S. mutans SrtA) is listed as 15.48 µg/mL (≈ 48.6 µM).
In the case of `C[C@@]12CCC(=O)c3coc(c31)C(=O)c1cc3c(O)ccc(OS(=O)(=O)O)c3cc12` [Compound 1, halenaquinol sulfate], the MIC (S. aureus ATCC6538p; ATCC6538P) was 309 µM and > 128 µg/mL, the pIC50 [1] was 3.99 and the “SrtA inhibitory activity in words” value [1] was “moderate inhibitory activities”.
For `O=C(NCCSSCCNC(=O)/C(Cc1ccc(O)c(Br)c1)=N/O)/C(Cc1ccc(O)c(Br)c1)=N/O` [psammaplin A], the pIC50 (S. aureus SrtA; S. aureus SrtA) is listed as 4.32.
For `O=c1c(O)c(-c2ccc(O)c(O)c2)oc2cc(O)cc(O)c12` [Quercetin, quercetin, reference compound], the MIC (S. aureus ATCC6538p; S. aureus ATCC6538p growth, 37 °C, read-out: MIC) was > 424 µM and > 128 µg/mL and the pIC50 [1] was 3.80.
In the case of `COc1ccc(/C(C#N)=C/c2cc(OC)ccc2OC)cc1` [(Z)-3-(2,5-dimethoxyphenyl)-2-(4-methoxyphenyl) acrylonitrile], the pIC50 (S. aureus SrtA; SrtA inhibition) is listed as 5.04, the “manner of binding the enzyme” value (S. aureus SrtA) is listed as “reversible” and the type of inhibition (S. aureus SrtA) is listed as “competitive inhibitor”.
In the case of `O=S(=O)(O)c1ccccc1-c1nn2c(-c3ccncc3)nnc2s1` [compound 6e, 3-(4-pyridinyl)-6-(2-sodiumsulfonatephenyl)[1,2,4]triazolo [3,4-b][1,3,4]thiadiazole], the pIC50 (S. aureus SrtA; S. aureus SrtA) is given as 5.03.
For `O=C(c1nc(-c2c[nH]c3cc(Br)ccc23)c[nH]1)c1c[nH]c2cc(O)ccc12` [bromotopsentin], the pIC50 (S. aureus SrtA; S. aureus SrtA) is listed as 4.40.
With `C[C@@]12CCC(=O)c3coc(c31)C(=O)c1cc3c(O)ccc(O)c3cc12` [Compound 2, halenaquinol] the MIC (S. aureus ATCC6538p; ATCC6538P) was 383 µM and > 128 µg/mL, the “anchoring of SpA on cell wall surface” value ([2]; 1 × IC50 (13.94 μM)) was “no significant difference from the wild type” and the “reduction of SpA anchoring” value ([2]; 2 × IC50 (27.88 μM)) was “approximately 53%”. For the same compound, the “reduction of SpA anchoring” value ([2]; 4 × IC50 (55.76 μM)) was about 85%, the pKi [1] was 5.02 and the type of inhibition ([1]; Lineweaver-Burk plot at IC50 or twofold IC50) was “mixed inhibitor”. For the same compound, the pIC50 [1] was 4.86, the “reversibility of binding to SrtA” value ([1]; enzyme activity recovered by dialysis) was “reversible” and the “SrtA inhibitory potency relative to halenaquinol sulfate” value ([1]; ratio of IC50 values) was “approximately 9.2 times”. For the same compound, the “inhibition of the transcription of srtA and spA” value ([3]; S. aureus Newman, semi-quantitative RT-PCR) was “does not inhibit”, the “PCR band intensity representing mRNA expression of srtA and spa” value ([3]; after 40 min of incubation, increasing concentrations) was “slightly increased” and the “PCR band intensity representing srtA mRNA expression” value ([3]; time course 0 to 60 min, gyrB consistent) was “increased over time”. The “SpA surface display / inhibition of SpA anchoring” value [4] was “comparable to those for an srtA-deletion mutant; also recorded: significantly reduced”.
In the case of `COc1cc2ccnc3c2c(c1O)N(C)C=C3` [isoaaptamine], the pIC50 (S. aureus SrtA; S. aureus SrtA) is given as 4.79.
In the case of `CC1(C)S[C@@H]2[C@H](NC(=O)[C@H](N)c3ccccc3)C(=O)N2[C@H]1C(=O)O` [Ampicillin, reference compound], the MIC (S. aureus ATCC6538p; ATCC6538P) was 0.4 µM and 0.1 µg/mL.
With `C[C@]12CCCc3coc(c31)C(=O)c1cc3c(cc12)C(=O)C=C(NCCS(=O)(=O)O)C3=O` [Compound 5, secoadociaquinone B] the MIC (S. aureus ATCC6538p; ATCC6538P) was 290 µM and > 128 µg/mL, the pIC50 [1] was 3.88 and the “SrtA inhibitory activity in words” value [1] was “moderate inhibitory activities”.
For `C[C@]12CCCc3coc(c31)C(=O)c1cc3c(cc12)C(O)CCC3O` (stereo partly drawn) [Compound 3, 13,14,15,16-tetrahydroxestoquinol], the MIC (S. aureus ATCC6538p; ATCC6538P) was 395 µM and > 128 µg/mL and the pIC50 [1] was 4.29.
